Results as given in patent publication US11028084B2, “Selective inhibitors of gentotoxic steress-induced IKK/NF-κB pathways” (Max-Delbrück-Centrum für Molekulare Medizin in der …, priority 2016, dated 2021).

Tests used:
Type in all cases: cell-based, human
[1] = test system: NF-κB DNA binding activity; assay: NF-κB DNA binding activity (EMSA) after γ-IR or etoposide, U2OS cells
Procedure: FIG. 3: (A) U2OS cells were pre-treated with increasing concentrations of MW01 in duplicates in a 384 well plate. Then, cells were treated with etoposide, fixed and subjected to IF of p65. Spatial measurement of p65 cytosolic and nuclear localisation was used for calculation of p65 translocation rates. (B) U2OS cells were pre-treated with DMSO, MW01 and irradiated with γ-IR. After 90 min cells were lysed and subjected to SDS-PAGE/WB and EMSA. (C) Cells were pre-treated with different concentrations of MW01 as indicated, treated with γ-IR (C) or etoposide (D) and subjected to WB or EMSA, respectively. LDH in (C) represents the loading control.
Nuclear or whole cell lysates were incubated with a ^32P-labeled NF-κB DNA-[…]
For electrophoresis, a current of 26 mA was applied for 2 h. After drying the gel onto a Whatman paper, signals were visualised on an autoradiography film (GE Healthcare) after overnight incubation at −80° C. in a radiography cassette. All work using radioactive substances were done at a monitored work space suitable for radioactive work.

U2OS cells = assay: qRT-PCR of anti- and pro-apoptotic genes after γ-IR, U2OS cells
Procedure: FIG. 15: (A), (B) U2OS cells were pre-treated with DMSO or MW01 and irradiated. After 8 h mRNA was isolated and reversely transcribed into cDNA. The obtained cDNA was used to perform qRT-PCR using gene specific exon-exon-spanning primers for mRNA of anti-apoptotic (A) and pro-apoptotic genes (B).
To quantitate specific mRNA (messenger RNA) species in samples RNA was isolated, RNA concentration was measured and mRNA was transcribed into cDNA. The amount of mRNA transcripts of certain genes within a sample was quantified by employing gene specific primers and using a C-1000 Thermal cycler (Biorad). The expression of genes of interest was normalised against two or three reference genes (HRPT1, RPL_13a and B2M) using the CFX manager software. The fold induction of mRNA was calculated over untreated sample levels by the ΔΔ-Ct method.

[2] = test system: ATM cytoplasmic translocation; assay: ATM relocalisation upon DNA DSB, immunofluorescence, U2OS cells
Procedure: FIG. 7: Cytoplasmic accumulation of ATM. (A) Fractionation experiment with separated nuclear extracts (NE) and cytoplasmic extracts (CE). PARP1 and LDH staining served as loading and fractionation controls. Cells were pre-treated with DMSO or MW01 (5 μM) prior to irradiation and cell harvesting at indicated times. NE and CE were subjected to SDS-PAGE/WB procedure. (B) U2OS cells were seeded on cover slips 2 days before treatment. The cells were pre-treated with solvent DMSO alone or with MW01 prior to irradiation, cell fixation and subsequent immunofluorescence staining.
For immunofluorescence staining 0.95×10^5 cells were seeded in 6 well plates onto autoclaved cover slips. Cellular confluency dictated to beginning of the experiment (2-3 days from seeding). After conduction of experiments cells were washed with PBS and fixed with 4% PFA/double-distilled H2O (ddH2O) for 10 min at RT. Following two additional washing steps cells were incubated with a solution containing 0.12% glycine/0.2% saponin in PBS for 10 min and then blocked with a solution containing 10% FCS/0.2% saponin in PBS for 1 h. Primary antibody incubation was performed overnight at 4° C. (1:500 diluted in 0.2% saponin in PBS). The next day, cover slips were washed five times with a solution containing 0.2% saponin in PBS. […]

HEK293 cells = assay: Crystal violet staining (cell number), HEK293 cells
Procedure: FIG. 16: (A) U2OS cells were pre-treated with DMSO or MW01 and irradiated. Cells were lysed 8 h post γ-IR and were used for western blotting and immunochemical staining. (B) HEK293 cells were pre-treated with DMSO or MW01 and irradiated. After 48 h cells were fixed and stained with crystal violet. Dissolved crystal violet was used for absorbance measurement in a visible light spectrophotometer at a wavelength of 595 nm. (C) HEK293 cells were pre-treated with DMSO or MW01 and irradiated. The percentage of viable cells within the population was calculated by exclusion of annexin V and propidium-iodide positive cells measured by flow cytometry. (D) MEF cells were pre-treated with DMSO or MW01 and irradiated. Cells were used for annexin V staining 24 h and 48 after γ-IR. Percentage of annexin V positive cell population was analysed using a flow cytometer. (E) Experiment done as shown in (D) but with HT1080 cells processed 8 h after irradiation. Statistical significance was calculated using students t-test.
For crystal violet staining, cells were washed with ice-cold PBS and fixed with 4% PFA in PBS for 15 min under a fume hood. After washing with PBS, cells were stained with 0.1% crystal violet for 20 min at RT. […] Then, 0.25 ml of stain was diluted 1:4 in ddH2O and absorbance was measured at 595 nm using a spectrophotometer against 10% acetic acid as blank.

[3] = test system: IL-1β-induced NF-κB activation; assay: IL-1β-stimulated NF-κB activation, SDS-PAGE/WB and EMSA, U2OS cells
Procedure: FIG. 5: (A) U2OS cell were pre-treated with MW01 followed by stimulation with IL-1p. Cell lysates were used for SDS-PAGE/WB and EMSA. (B) Cells pre-treated with increasing concentrations MW01 were stimulated with IL-1p. Cell lysates were used for SDS-PAGE/WB and stained with indicated antibodies.
For the activation of the canonical NF-κB pathway cells were treated with recombinant human TNFα (10 ng/ml) or IL-1β (10 ng/ml) for 20-30 min at 37° C.

With COc1ccc2c(c1OC)c(=O)n1c3ccc(O)cc3c3ccnc2c31 [MW01, 12-hydroxy-6,7-dimethoxy-8H-benzo[c]indolo[3,2,1-ij][1,5]naphthyridin-8-one] the “etoposide-induced NF-κB DNA binding activity” value ([1]; etoposide) was “inhibited by MW01 pre-treatment in a concentration dependent manner”, the “γ-IR-induced NF-κB DNA binding activity” value ([1]; γ-IR, 90 min, U2OS) was “inhibited the γ-IR-induced NF-κB DNA binding activity” and the “BIRC3 mRNA” value (U2OS cells; 8 h after γ-IR) was “down-regulated”. The “expression of BCL2L1 mRNA” value (U2OS cells; 8 h after γ-IR) was “fully inhibited”, the “expression of XIAP mRNA” value (U2OS cells; 8 h after γ-IR) was “moderately inhibited” and the “BBC3 mRNA expression, induction” value (U2OS cells; after irradiation) was 3 fold. For the same compound, the “PMAIP1 mRNA expression” value (U2OS cells; after irradiation) was “further elevated”, the “mRNA expression of TNFAIP3” value (U2OS cells; after γ-IR, in comparison to irradiated controls) was “abolished mRNA expression” and the “mRNA expression of PMAIP1” value (U2OS cells; pre-treatment without irradiation) was “already increased”. For the same compound, the “BBC3 mRNA expression” value (U2OS cells; without irradiation) was “not influenced”, the “mRNA expression of BIRC3, XIAP or BCL2L1 in comparison to the DMSO control” value (U2OS cells; without irradiation) was “did not significantly change” and the “ATM localisation after irradiation (IF)” value [2] was “predominantly localized within the nucleus”. The “cell number compared to the DMSO/IR control” value (HEK293 cells; HEK293, 48 h after irradiation) was “significant effect on further reduction in cell number”, the “cell number in comparison to DMSO treated samples” value (HEK293 cells; HEK293, not irradiated) was “reduced the cell number” and the “p65 S536 phosphorylation following IL-1β stimulation” value ([3]; U2OS) was “neither inhibited p65 S536 phosphorylation”. The “IKK activation and p65 S536 phosphorylation after IL-1β at high concentrations” value ([3]; up to 100 μM) was “no effect on the phosphorylation state of IKK or p65”.
